In the METLIN SMRT retention time set (Domingo-Almenara et al. 2019):

Assay: gradient 5% acetonitrile 3 min, to 50% in 2 min, to 85% in 15 min, held 3 min, 100 µL/min
Details: column: Zorbax Extend-C18 2.1 x 50 mm; eluents: water / acetonitrile, 0.1% formic acid
Outline: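 Standards, all pure, were combined into mixtures of ~100 molecules and run at 100 μL/min on a Zorbax Extend-C18 column (2.1 × 50 mm, 1.8 μm) with water and acetonitrile, each containing 0.1% formic acid. A coupled quadrupole time-of-flight mass spectrometer operated in positive and negative ionization mode. Retention time values come from computationally picked adduct peaks, each inspected manually.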

Compound | RP-LC retention time [s]
CCOc1ccc2cccc(NC(=O)c3cnccn3)c2n1 | 1080
O=c1c2cc3c(cc2nc(SCc2nc(-c4cccc(F)c4)no2)n1Cc1ccncc1)OCO3 | 795
Fc1cccc(-c2noc(Cc3nc(-c4ccccc4Cl)cs3)n2)c1 | 1260
Cc1noc(C)c1Cc1c(C(=O)NCCn2c(C)cnc2C)noc1C | 601
CCn1nccc1-c1cccc(-c2noc(-c3ccc(C)cc3)n2)c1 | 1310
O=C(Nc1nc2ccccc2[nH]1)c1cccc(Cl)c1 | 703
Cc1cccc(OCc2nc(-c3ccc(NS(=O)(=O)c4cccs4)cc3)no2)c1 | 1090
Cc1ccc(OCc2ccc(-c3nc(C#N)c(NCCCN(C)C)o3)o2)cc1 | 717
CC(C)NC[C@H](O)COc1cccc2[nH]ccc12 | 603
CCN(CC)c1ccc(/C=C2\SC(=O)NC2=O)cc1 | 876
COC(=O)C1=C(C)N(C(C)C)C(=O)C1(NC(=O)c1ccccc1OC)C(F)(F)F (configuration not stated) | 1010
Cc1cccc(-c2nc(Cc3noc(-c4ccncc4)n3)c(C)o2)c1 | 1010
CCc1cc(C(=O)Nc2ccc(C)c(C)c2)nc2ccnn12 | 1150
CCCCN(CC)S(=O)(=O)c1cc(-c2nnc(C)o2)co1 | 869
Cc1ccc(-c2ncccc2CNS(=O)(=O)c2ccc(C)c(F)c2)cc1 | 769
Cc1cc2nc(C(=O)Nc3cccc(C)c3C)cc(C)n2n1 | 1020
O=C(Cn1nc2c3ccc(Cl)cc3ncn2c1=O)Nc1ccc(F)cc1 | 744

Compound | RP-LC retention time [s]
CC(C)(C)c1noc(-c2ccc(=O)n(Cc3ccc(Cl)cc3)n2)n1 | 1120
CSc1cccc(-n2ccc(=O)c(-c3nc(-c4ccccc4)no3)n2)c1 | 971
O=C(Cc1csc(NC(=O)Nc2ccccc2)n1)NCCc1c[nH]c2ccccc12 | 891
COc1nc(-c2ccc3c(c2)OCO3)n(-c2ccc(NC(=O)CSc3ccccc3)cc2)n1 | 894
COC(=O)c1cc(OCC(=O)Nc2ccc3c(c2)OCO3)c2cc(F)ccc2n1 | 778
CC1=C(C(=O)Nc2cccc(Cl)c2C)C2(CCCCCC2)OC1=O | 1090
O=C(Cc1cn2cc(Br)ccc2n1)Nc1ccc2c(c1)OCCO2 | 608
COc1ccc(N2C(=O)C3N=NN(Cc4nc(-c5ccccc5Cl)no4)C3C2=O)cc1OC (configuration not stated) | 880
COc1cc(OC)c(/C=C2/C(=O)Nc3ccccc32)c(OC)c1 | 986
Cc1nnc(-c2cc(C)n(CC(=O)Nc3ccc(Cl)cc3C)c2C)o1 | 810
COc1ccc2c(c1)C1(CCN(S(=O)(=O)c3cccc(F)c3)C1)C(=O)N2C (configuration not stated) | 874
Cc1ccc(-n2cc(C(=O)NCc3ccccc3Cl)nn2)cc1 | 921
Cn1cc(S(=O)(=O)Nc2ccc(F)c(F)c2)c2cccnc21 | 790
Cc1ccc2c(NCc3ccc4c(c3)OCO4)c(C(=O)OC(C)C)cnc2n1 | 737
Cc1ccc(-c2noc(CN3N=NC4C(=O)N(c5cccc(F)c5)C(=O)C43)n2)cc1 (configuration not stated) | 1020
Cc1cc(NC(=O)Cn2nc(N(C)C)c3ccccc3c2=O)ccc1Br | 995

Second part, the compound after the results:

RP-LC retention time [s] | Compound
625 | O=C(NCC(c1ccco1)N1CCN(c2ccccc2)CC1)Oc1ccccc1 (configuration not stated)
1090 | COc1cc(-c2nnc(-c3ccc(C)c(S(=O)(=O)N4CCCCC4)c3)o2)cc(OC)c1OC
739 | COC(=O)c1cccc(NC(=O)N2CCSc3ncccc32)c1
746 | O=C(Cn1ccc2sccc2c1=O)Nc1cccc(F)c1
1010 | Cc1cccc(CN2N=C(C(=O)N3CCCCC3)S(=O)(=O)c3ccccc32)c1
707 | CC(C)NC(=O)N(C1CC1)C1CCOC2(CCN(C(=O)c3ccco3)CC2)C1 (configuration not stated)
846 | O=C(NCC1CCCCC1)C1CCN(C(=O)c2ncn3c2COC(c2ccc(F)cc2)C3)CC1 (configuration not stated)
564 | COCCNC(=O)c1cccnc1N1CCNC(c2ccccc2)C1 (configuration not stated)
595 | CC(C)S(=O)(=O)N1CCCC(Cn2cc(COc3ccc4c(c3)CCC4)nn2)C1 (configuration not stated)
929 | CCOC(=O)c1c(C)c(C(=O)NCc2ccccc2Cl)c(C)n1CC
973 | Cc1sc2ccn(Cc3ccc(F)cc3)c(=O)c2c1C(=O)NC1CCCCC1
740 | CC(C)Cn1c(=O)c(N2CCN(S(=O)(=O)Cc3ccccc3)CC2)nc2ccncc21
709 | CCOc1ccc(CNC(=O)C2CCCN(c3cc(=O)n(C)c(=O)n3C)C2)cc1 (configuration not stated)
660 | CCN1CCN(C(=O)C2CCCN(S(=O)(=O)c3ccc4c(ccn4CC)c3)C2)CC1 (configuration not stated)
885 | Cc1ccc(C(=O)N2CCN(c3ccc(=O)n(-c4ccc(Cl)cc4)n3)CC2)s1
744 | CCS(=O)(=O)Nc1ccc(-c2noc(CNC(=O)c3ccccc3)n2)cc1
713 | Cc1sc2ccn(Cc3ccc(F)cc3)c(=O)c2c1C(=O)N1CCOCC1

RP-LC retention time [s] | Compound
683 | CN(CC1CCOC1)C(=O)c1ccc(F)cc1F (configuration not stated)
591 | O=S(=O)(c1cccc2nsnc12)N1CCCn2nc(-c3ccncc3)cc2C1
1060 | CCOC(=O)N1CCC(NC(=O)c2cc3sccc3n2Cc2ccc(Cl)cc2)CC1
1040 | O=C(Cn1nc(N2CCCCCC2)c2ccccc2c1=O)NCc1ccc(F)cc1
646 | COc1ccccc1C(=O)N1CCCC(c2nnc(C)s2)C1 (configuration not stated)
739 | Cn1c(=O)sc2cc(S(=O)(=O)N3CCC(C(=O)NCc4ccco4)CC3)ccc21
748 | Cc1nnc(-c2ccc3ccn(CC(=O)N4CCCCC4)c3c2)o1
733 | CCOc1ccc(NC(=O)N2CCN(Cc3nc4ccc(C)cc4o3)CC2)cc1
596 | O=C(Cn1c(=O)n(-c2ccccc2)c2ncccc21)N1CCN(c2ccccn2)CC1
1120 | CCc1ccc(Oc2cc(N3CCC(C(=O)NC4CCC(C)CC4)CC3)ncn2)cc1 (configuration not stated)
577 | Cc1nccn1-c1cc(N2CCC3(CC2)OCCO3)nc2ccnn12
794 | Cc1cccc(CNC(=O)CC2CCN(C(=O)c3[nH]c(C)cc3C)CC2)c1
935 | O=c1n(Cc2cccc(Cl)c2)nc2c(S(=O)(=O)N3CCCCC3)cccn12
663 | CN(C)C(=O)c1cccnc1OC1CCN(C(=O)c2ccc(Br)o2)C1 (configuration not stated)
713 | CC1=C(c2ccc(F)cc2)S(=O)(=O)N=C1N1CCCN(C(=O)c2ccccn2)CC1
776 | COC(=O)c1c(C)[nH]c(C(=O)N2CCCC(C(=O)NCc3ccccc3C)C2)c1C (configuration not stated)
579 | OC1(c2ccccn2)CCOC2(CCN(Cc3ccc(Cl)cc3F)CC2)C1 (configuration not stated)
